Earlier results on one compound are cited in patent US20090142391A1, “Conjugated RNAi Therapeutics” (priority 2007, published 2009).

SMILES strings stand for the structures.

For this data set the following is noted: in the blood.

In the case of `C=CC[C@@H]1/C=C(\C)C[C@H](C)C[C@H](OC)[C@H]2O[C@@](O)(C(=O)C(=O)N3CCCC[C@H]3C(=O)O[C@H](/C(C)=C/[C@@H]3CC[C@@H](O)[C@H](OC)C3)[C@H](C)[C@@H](O)CC1=O)[C@H](C)C[C@@H]2OC` [FK506], the “distribution into protected cellular compartments” value was 72-98%.
